According to US10351519B2, “Sulfamate derivative compounds, processes for preparing them and their uses” (BIO-PHARM SOLUTIONS CO., LTD., priority 2016, dated 2019):

Columns and labels:
Type in all cases: in vivo
Sprague-Dawley rats [1] = test: Antiallodynic activity on Chung model (SNL, spinal nerve ligation); settings: orally; for SNL efficacy %: 30 mg/kg; for ED50: Rattus norvegicus, po, at peak time
Source text: Male Sprague-Dawley rats (100-130 g, Orient Bio, Korea) were habituated for 1 week before the experiment and allowed free access to food and water throughout the experimentation. Room temperature and humidity were maintained at 24±2 and 50±10%, respectively. The neuropathic surgery (SNL, Spinal nerve ligation) model was done as described in Kim and Chung (1992). Briefly, an animal was put under gaseous anesthesia with isoflurane. The left lumber spinal nerve L5 and L6 were isolated and tightly ligated with 6-0 silk thread. The wound muscle was closed with Catgut® chrom 3/0 thread and skin was closed with Dafilon 3/0 tread. Sham controls were prepared in the same manner with the spinal nerves exposed, but with no ligated L5 and L6 nerves. Preparation of the vehicle controls were identical to the group treated with compound, except for administration of vehicles without compound in the vehicle control group.
Tactile sensitivity (Mechanical allodynia) was evaluated using von Frey monofilaments before and after treatment, and animals were included in the study only if the withdrawal threshold value was less than 4 g. One week after surgery, SNL-operated animals, sham-operated animals and vehicle control animals were tested for tactile sensitivity with von Frey monofilaments 3 trials in each animal. All Animals were placed in a stainless steel mash chamber and habituated for 30 min in the test cage. The tactile sensitivity for the ipsilateral hind paw was measured using the up-and-down method (Dixon, 1980) with seven von Frey monofilaments (0.4, 1, 2, 4, 6, 8, and 15 g) in 3 trials. The tactile sensitivity test was followed by Dixon's method (Dixon, 1980). The 50% paw withdrawal threshold for each paw was calculated using the following formula: [Xth] log=[vFr] log+ky where [vFr] is the force of the last von Frey used, k=0.2249 which is the average interval (in log units) between the von Frey monofilaments, and y is a value that depends upon the pattern of withdrawal responses (Dixon, 1980).
All animals were fasted 18 h before the administration of the compounds. Antiallodynic effect of compounds were evaluated at the three dose, orally administrated in a volume of 5 ul/g, bw in a vehicle of 30% (v/v) PEG 400 or 20% (v/v) Tween 80. The test was performed at the peak time of efficacy after compound administration.
The relative values compared to the sham group (% control) were calculated and shown in Table 3, which show an antiallodynic effect of the test compounds on SNL model in rats.

Sprague-Dawley rats [2] = test: Antiallodynic activity on Complete Freund's Adjuvant (CFA)-induced inflammatory pain model; settings: intraperitoneally
Description: Male, Sprague-Dawley rats (210-250 g, Nara Bio, Korea) were habituated for 1 week before CFA injection and allowed free access to food and water throughout the experimentation. Room temperature and humidity were maintained at 24±2 and 50±10%, respectively.
CFA-induced inflammatory pain was induced by the procedure of Nagakura et al. (2003) and Gregory P. et al. (2010) with minor modifications. CFA (sigma, USA) was injected in the right plantar with a 100 ul volume under gaseous anesthesia with isoflurane. Sham controls were injected with 100 ul of saline and preparation of the vehicles without compound in the vehicle control group. Tactile sensitivity (Mechanical allodynia) was evaluated using von Frey monofilaments before and after treatment, and the animals were included in the study only if the withdrawal threshold value was less than 4 g. One week after surgery, CFA-infused treatment animals (n=4-6), sham-operated animals (n=12), and vehicle control animals (n=17) were tested for tactile sensitivity with von Frey monofilaments 3 trials for each animal. All Animals were placed in a stainless steel mesh chamber and habituated for 30 min in the test box. The tactile sensitivity for ipsilateral hind paw was measured using the up-and-down method (Dixon, 1980) with seven von Frey monofilaments (0.4, 1, 2, 4, 6, 8, and 15 g) to 3 trials. Tactile sensitivity test was followed by Dixon's method (Dixon, 1980). The 50% paw withdrawal threshold for each paw was calculated using the following formula: [Xth] log=[vFr] log+ky where [vFr] is the force of the last von Frey used, k=0.2249 which is the average interval (in log units) between the von Frey monofilaments, and y is a value that depends upon the pattern of withdrawal responses (Dixon, 1980).
Antiallodynic effect of compound was evaluated at the dose of 10-60 mg/kg (n=4-6), intraperitoneally administrated in a volume of 5 ul/g bw in a vehicle of 30% (v/v) PEG or 20% (v/v) Tween 80. The test was performed peak time of efficacy (0.5 or 1 hr) after compound administration.
The relative values compared to the sham (% control) were calculated and shown in Table 4, which show an antiallodynic effect of Compound 1 on CFA-induced pain model in rats.

SD rats = test: Anti-epilepsy activity, MES test, rat; settings: for ED50: Rattus norvegicus, po
Description: (§1) In the MES test (Ref., G. Villetti et al. Neuropharmacology 40 (2001) 866-878), an electrical stimulus (mice: 50 mA, 60 Hz, 0.2 sec, and rats: 150 mA, 60 Hz, 0.2 sec in the test animal) supplied by an 11A Shocker (IITC Life Science Company) was delivered through corneal electrodes. All mice or rats assigned to any electroshock at peak time were treated with each test compound sample which was dissolved in 30% PEG 400 or 20% tween 80 prepared by saline solvent applied orally before the test. […] Three doses of the test sample were administered orally to 9-18 animals (3-6 mice per dose) for evaluating the respective doses at which 50% of the animals were protected from seizure (ED50). The ED50 value (median effective dose) was calculated by Litchfield and Wicoxon log-probit method which is a dose-response relationship. Experimental animals, male ICR mice and male SD rats, were purchased from OrientBio, Samtako, or Nara Biotech, Korea, and housed in cages (4-5 mice or 3 rats per cage) for 4-5 days. The range of mice body weight was between 19 and 25 grams and range of rats body weight was between 100 and 130 grams.

ICR mice [3] = test: Anti-epilepsy activity, MES test, mouse
Description: as §1

Sprague-Dawley rats [4] = test: Lithium-pilocarpine induced epilepsy test, prevention; settings: i.p.
Description: Male Sprague-Dawley rats (purchased from Orient Bio Inc. Korea) of body weight 175-200 grams were used for these studies and 3 rats per cage were housed for 4-5 days. On the day prior to SE, rats received 127 mg/kg lithium chloride (Sigma, St. Louis, Mo., U.S.A.) intraperitoneally (i.p.). Approximately 18-20 h following this treatment, rats were given an i.p. injection of CD97 dose (30-43 mg/kg) pilocarpine (Sigma). An i.p. injection of 2 mg/kg methyl-scopolamine (Sigma) was administered 30 min prior to pilocarpine to block the effects of the muscarinic agonist on peripheral cholinergic receptors. Test drugs were dissolved in 30% PEG 400 or 20% tween80 (Sigma).
The drugs were administered intraperitoneally (i.p.) in a volume of 2 ul/g body weight. Pharmacological effects of all of the test materials were evaluated to compare test groups (n=6) with a control group (n=6). Control group was administered vehicle only. The efficacy was measured 0.5, 1, 2, or 4 hours after the administration of the test material. The time point that the most animals were protected was defined as peak time and the ED50 was determined at peak time. The animals were then transferred to observation cages and observed continuously for 90 min. Seizure was elicited in approximately 95% of the control group. Protection was defined as complete absence of seizure grade 3-5 (Racine scale; Racine, 1972) over the 90-min observation period. The effective dose of the compound necessary to protect 50% of the animals against seizures compared to controls (i.e. ED50) was determined by a curve fitting program (Excel 2007, Microsoft).

ICR mice [5] = test: Anti-epilepsy activity, scPTZ test, mouse
Source text: In this experiment, each test compound sample was formulated as described in Biological Experimental Example I, and administered intraperitoneally to the test animals (mice; ICR or Rat; SD); Experimental animals, male ICR mice and male SD rats, were purchased from OrientBio or Nara biotech, Korea, and housed 4-5 mice per a cage for 4-5 days. The range of mice body weight was used between 19 and 26 grams and range of rats body weight was used between 100 and 130 grams. After Peak time (0.5, 1, 2 and 4 hr) from the administration, PTZ (Pentylenetetrazol) was administered subcutaneously in the concentration capable of inducing 97% intermittent convulsions (mice: 76-110 mg/kg·bw, 10 μl/g, or rats: 79-110 mg/kg·bw, 2 μl/g). If clonic seizure was not observed for at least 30 minutes in the PTZ administered animal, it can be considered that the test compound has anti-epilepsy activity. The median effective dose (ED50) is determined using 6 animals per a concentration (total three different concen-trations), and calculated by Litchfield and Wicoxon log-probit method which is a dose-response relationship.

[6] = Rattus norvegicus, ip, read-out: CFA-induced pain model efficacy %
[7] = po, read-out: MES test (po) efficacy %

| SMILES | SNL Peak Time (Sprague-Dawley rats [1]) [h] | SNL efficacy % (Sprague-Dawley rats [1]) | response vs control in vivo at 50 mg/kg (Sprague-Dawley rats [2]; [6]) [%] | CFA-induced pain model Peak Time (Sprague-Dawley rats [2]) [h] | MES test (po) Peak time (SD rats) | ED50 (SD rats) [mg/kg] | MES test (po) Peak time (ICR mice [3]) [h] | responders at 60 mg/kg (ICR mice [3]; [7]) [%] | other results |
| --- | --- | --- | --- | --- | --- | --- | --- | --- | --- |
| C[C@@H](OS(N)(=O)=O)[C@H](O)c1ccccc1F [Example 18, (1R, 2R)-1-(2-fluorophenyl)-1-hydroxypropan-2-yl sulfamate] | 0.5 | 30(48.2%) | 46.6 | 0.5 | (2 h) | 14.2 | 1 | – | ED50 (ICR mice [3]; po): 62 mg/kg |
| C[C@@H](OS(N)(=O)=O)[C@H](O)c1cccc(Cl)c1Cl [Example 10, (1R, 2R)-1-(2,3-dichlorophenyl)-1-hydroxypropan-2-yl sulfamate] | – | – | – | – | – | – | 1 | – | Lithium pilocarpine model (pre) peak time (Sprague-Dawley rats [4]): 1 h; Lithium pilocarpine model (pre) efficacy % (Sprague-Dawley rats [4]; 100 mg/kg): 66.6%; responders at 100 mg/kg (ICR mice [3]; po, 100 mg/kg, read-out: MES test (po) efficacy %): 83.3% |
| C[C@H](OS(N)(=O)=O)[C@@H](O)c1ccccc1Cl [Example 1, (1S, 2S)-1-(2-chlorophenyl)-1-hydroxypropan-2-yl sulfamate] | – | – | – | – | – | – | 2 | – | scPTZ test (ip) Peak time (ICR mice [5]): 0.5 h; ED50 (ICR mice [5]; ip): 76.6 mg/kg; ED50 (ICR mice [3]; po): 46.9 mg/kg |
| COCO[C@H](c1ccccc1I)[C@@H](C)OS(N)(=O)=O [Example 75, (1R, 2R) 1-(2-iodophenyl)-1-(methoxymethoxy)propan-2-yl sulfamate] | 1 | 30(64.9%) | 28.1 | 0.5 | (2 h) | 4.2 | 1 | 33.3 | – |
| COCO[C@H](c1ccccc1F)[C@@H](C)OS(N)(=O)=O [Example 73, (1R, 2R)-1-(2-fluorophenyl)-1-(methoxymethoxy)propan-2-yl sulfamate] | 1 | 30(31.3%) | 38.5 | 0.5 | (4 h) | 34.8 | 1 | 33.3 | – |
| C[C@@H](OS(N)(=O)=O)[C@H](O)c1ccc(Cl)cc1Cl [Example 4, (1R, 2R)-1-(2,4-dichlorophenyl)-1-hydroxypropan-2-yl sulfamate] | – | – | – | – | 4 h | – | – | – | scPTZ test (ip) Peak time (ICR mice [5]): 2 h; scPTZ test (ip) efficacy % (ICR mice [5]; 100 mg/kg): 100(100%); MES test (po) efficacy % (SD rats; 10 mg/kg): 33% |
| COCO[C@@H](c1ccccc1Cl)[C@H](C)OS(N)(=O)=O [Example 69, (1S, 2S)-1-(2-chlorophenyl)-1-(methoxymethoxy)propan-2-yl sulfamate] | 1 | – | – | 0.5 | 1 h | – | – | – | ED50 (Sprague-Dawley rats [1]): 48.2 mg/kg; ED50 (Sprague-Dawley rats [2]; Rattus norvegicus, ip, at peak time): 29.5 mg/kg; MES test (po) efficacy % (SD rats; 20 mg/kg): 16.6%; Lithium pilocarpine model (pre) peak time (Sprague-Dawley rats [4]): 1 h; Lithium pilocarpine model (pre) efficacy % (Sprague-Dawley rats [4]; 50 mg/kg): 33.3% |
| C[C@@H](OS(N)(=O)=O)[C@H](O)c1ccccc1I [Example 20, (1R, 2R)-1-(2-iodophenyl)-1-hydroxypropan-2-yl sulfamate] | 1 | 30(58.7%) | 28.7 | 0.5 | (2 h) | 20.1 | 1 | 16.6 | – |
| C[C@H](OS(N)(=O)=O)[C@@H](O)c1ccccc1I [Example 19, (1S, 2S)-1-(2-iodophenyl)-1-hydroxypropan-2-yl sulfamate] | 1 | – | – | 1 | – | – | 1 | – | ED50 (Sprague-Dawley rats [1]): 44.6 mg/kg; response vs control in vivo at 30 mg/kg (Sprague-Dawley rats [2]; Rattus norvegicus, ip, 30 mg/kg, read-out: CFA-induced pain model efficacy %): 24.3%; responders at 30 mg/kg (ICR mice [3]; po, 30 mg/kg, read-out: MES test (po) efficacy %): 66.6% |
